Test results: ChEMBL document CHEMBL3525911, “The development, characterization, and application of an OATP1B1 inhibition assay in drug discovery” (Drug Metab Dispos, 2012)

T1: Solute carrier organic anion transporter family member 1B1 (Homo sapiens, UniProt Q9Y6L6)
T1 sequence (Q9Y6L6 whole entry): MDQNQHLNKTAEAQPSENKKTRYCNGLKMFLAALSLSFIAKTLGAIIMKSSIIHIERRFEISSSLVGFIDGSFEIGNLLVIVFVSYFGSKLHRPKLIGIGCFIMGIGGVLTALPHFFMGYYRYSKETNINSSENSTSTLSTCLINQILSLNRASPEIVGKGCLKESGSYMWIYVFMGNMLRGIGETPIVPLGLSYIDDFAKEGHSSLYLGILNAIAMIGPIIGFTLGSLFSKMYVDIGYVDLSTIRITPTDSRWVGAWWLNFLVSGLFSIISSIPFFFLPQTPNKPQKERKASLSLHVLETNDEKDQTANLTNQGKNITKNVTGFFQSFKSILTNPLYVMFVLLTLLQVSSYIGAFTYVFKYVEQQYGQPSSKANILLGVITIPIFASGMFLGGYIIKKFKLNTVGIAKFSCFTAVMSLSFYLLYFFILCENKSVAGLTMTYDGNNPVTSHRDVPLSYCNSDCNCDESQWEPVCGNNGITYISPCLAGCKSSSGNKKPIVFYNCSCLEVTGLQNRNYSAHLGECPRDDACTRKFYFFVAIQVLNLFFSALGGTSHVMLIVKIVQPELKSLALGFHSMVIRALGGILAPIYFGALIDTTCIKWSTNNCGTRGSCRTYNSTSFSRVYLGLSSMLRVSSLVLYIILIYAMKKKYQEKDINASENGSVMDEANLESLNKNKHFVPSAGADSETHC

B1: Solute carrier organic anion transporter family member 1B1 (Homo sapiens) (protein)
chain: MDQNQHLNKTAEAQPSENKKTRYCNGLKMFLAALSLSFIAKTLGAIIMKSSIIHIERRFEISSSLVGFIDGSFEIGNLLVIVFVSYFGSKLHRPKLIGIGCFIMGIGGVLTALPHFFMGYYRYSKETNINSSENSTSTLSTCLINQILSLNRASPEIVGKGCLKESGSYMWIYVFMGNMLRGIGETPIVPLGLSYIDDFAKEGHSSLYLGILNAIAMIGPIIGFTLGSLFSKMYVDIGYVDLSTIRITPTDSRWVGAWWLNFLVSGLFSIISSIPFFFLPQTPNKPQKERKASLSLHVLETNDEKDQTANLTNQGKNITKNVTGFFQSFKSILTNPLYVMFVLLTLLQVSSYIGAFTYVFKYVEQQYGQPSSKANILLGVITIPIFASGMFLGGYIIKKFKLNTVGIAKFSCFTAVMSLSFYLLYFFILCENKSVAGLTMTYDGNNPVTSHRDVPLSYCNSDCNCDESQWEPVCGNNGITYISPCLAGCKSSSGNKKPIVFYNCSCLEVTGLQNRNYSAHLGECPRDDACTRKFYFFVAIQVLNLFFSALGGTSHVMLIVKIVQPELKSLALGFHSMVIRALGGILAPIYFGALIDTTCIKWSTNNCGTRGSCRTYNSTSFSRVYLGLSSMLRVSSLVLYIILIYAMKKKYQEKDINASENGSVMDEANLESLNKNKHFVPSAGADSETHC

Columns and labels:
[1] = target: T1, Solute carrier organic anion transporter family member 1B1; assay: Inhibition of OATP1B1 (unknown origin) expressed in HEK293 cells using estrone-3-sulfate substrate; type: ADME, cell-based
[2] = target: T1, Solute carrier organic anion transporter family member 1B1; assay: Inhibition of OATP1B1 (unknown origin) expressed in HEK293 cells using estradiol-17beta-glucuronide substrate; type: ADME, cell-based
[3] = target: T1, Solute carrier organic anion transporter family member 1B1; assay: Inhibition of OATP1B1 (unknown origin) expressed in HEK293 cells using pitavastatin substrate; type: ADME, cell-based
[4] = substrate: O=C(O)C[C@H](O)C[C@H](O)/C=C/c1c(C2CC2)nc2ccccc2c1-c1ccc(F)cc1; assay: (§1) Drug uptake in HEK293 cells expressing OATP1B1 (unknown origin) assessed as OATP1B1-mediated drug transport; type: ADME, cell-based, Homo sapiens
[5] = substrate: C[C@]12CC[C@@H]3c4ccc(O)cc4CC[C@H]3[C@@H]1CC[C@@H]2O[C@@H]1O[C@H](C(=O)O)[C@@H](O)[C@H](O)[C@H]1O; assay: as §1; type: ADME, cell-based, Homo sapiens

Molecule | IC50 [1] [µM] | IC50 [2] [µM] | IC50 [3] [µM] | Km [4] [µM] | Vmax [4] [µmol/min] | Km [5] [µM] | Vmax [5] [µmol/min]
Cc1ccc(C)c(OCCCC(C)(C)C(=O)O)c1 [GEMFIBROZIL] | 130 | 11 | 38 |  |  |  | 
CO[C@H]1/C=C/O[C@@]2(C)Oc3c(C)c(O)c4c(O)c(c(/C=N/N5CCN(C)CC5)c(O)c4c3C2=O)NC(=O)/C(C)=C\C=C\[C@H](C)[C@H](O)[C@@H](C)[C@@H](O)[C@@H](C)[C@H](OC(C)=O)[C@@H]1C [RIFAMPIN] | 2.3 | 0.3 |  |  |  |  | 
B1 |  |  |  | 4.8 | 0.00045 | 3.6 | 0.0002
